≈ marks a conversion by molar mass, not a printed value.
Tests used:
Assay type in all cases: functional
[1] = tested on: Streptococcus sp. 'group B'; assay: Antimicrobial activity against Streptococcus sp. 'group B' isolate 16 harboring gyrA Ser81Leu mutant, parC Ser79Tyr mutant and parE Ileu495Leu mutant gene by agar dilution method
[2] = tested on: Streptococcus sp. 'group B'; assay: Antimicrobial activity against Streptococcus sp. 'group B' isolate 9 harboring gyrA Ser81Leu mutant, parC Ser79Tyr mutant and parE Ileu495Leu mutant gene by agar dilution method
[3] = tested on: Streptococcus sp. 'group B'; assay: Antimicrobial activity against Streptococcus sp. 'group B' isolate 1 harboring gyrA Glu85Lys mutant, parC Ser79Tyr mutant and parE Ileu495Leu mutant gene by agar dilution method

SMILES | MIC [1] [µg/mL] | MIC [2] [µg/mL] | MIC [3] [µg/mL]
O=C(O)c1cn(C2CC2)c2cc(N3CCNCC3)c(F)cc2c1=O [CIPROFLOXACIN] | 32 (≈ 96.6 µM) | 64 (≈ 193 µM) | –
N[C@@H]1[C@H]2CN(c3nc4c(cc3F)c(=O)c(C(=O)O)cn4-c3ccc(F)cc3F)C[C@@H]12 [TROVAFLOXACIN] | 16 (≈ 38.4 µM) | 8 (≈ 19.2 µM) | 8 (≈ 19.2 µM)
COc1c(N2C[C@@H]3CCCN[C@@H]3C2)c(F)cc2c(=O)c(C(=O)O)cn(C3CC3)c12 [MOXIFLOXACIN] | 4 (≈ 9.96 µM) | 4 (≈ 9.96 µM) | 2 (≈ 4.98 µM)
C[C@H]1NCc2cc(-c3ccc4c(=O)c(C(=O)O)cn(C5CC5)c4c3OC(F)F)ccc21 [GARENOXACIN] | 2 (≈ 4.69 µM) | 2 (≈ 4.69 µM) | 2 (≈ 4.69 µM)
COc1c(N2CCNC(C)C2)c(F)cc2c(=O)c(C(=O)O)cn(C3CC3)c12 (configuration not stated) [GATIFLOXACIN] | 8 (≈ 21.3 µM) | 4 (≈ 10.7 µM) | 4 (≈ 10.7 µM)
C[C@H]1COc2c(N3CCN(C)CC3)c(F)cc3c(=O)c(C(=O)O)cn1c23.C[C@H]1COc2c(N3CCN(C)CC3)c(F)cc3c(=O)c(C(=O)O)cn1c23.O [LEVOFLOXACIN] | 32 | 16 | 16

From ChEMBL document CHEMBL1255331, “Emergence of fluoroquinolone resistance in group B streptococcal isolates in Taiwan” (2008)
